# Test results taken from patent publication US20230226109A1, “METHOD FOR DIFFERENTIATING INNATE LYMPHOID CELLS FOR IMMUNOTHERAPY” (The Board of Trustees of the Leland Stanford Junior …, priority 2019, published 2023).
# B1: E-Cadherin: coating of culture plates, extracellular matrix component, used without feeder cells (protein, UniProt P12830 155-882, looked up)
# Cadherin-1: DWVIPPISCPENEKGPFPKNLVQIKSNKDKEGKVFYSITGQGADTPPVGVFIIERETGWLKVTEPLDRERIATYTLFSHAVSSNGNAVEDPMEILITVTDQNDNKPEFTQEVFKGSVMEGALPGTSVMEVTATDADDDVNTYNAAIAYTILSQDPELPDKNMFTINRNTGVISVVTTGLDRESFPTYTLVVQAADLQGEGLSTTATAVITVTDTNDNPPIFNPTTYKGQVPENEANVVITTLKVTDADAPNTPAWEAVYTILNDDGGQFVVTTNPVNNDGILKTAKGLDFEAKQQYILHVAVTNVVPFEVSLTTSTATVTVDVLDVNEAPIFVPPEKRVEVSEDFGVGQEITSYTAQEPDTFMEQKITYRIWRDTANWLEINPDTGAISTRAELDREDFEHVKNSTYTALIIATDNGSPVATGTGTLLLILSDVNDNAPIPEPRTIFFCERNPKPQVINIIDADLPPNTSPFTAELTHGASANWTIQYNDPTQESIILKPKMALEVGDYKINLKLMDNQNKDQVTTLEVSVCDCEGAAGVCRKAQPVEAGLQIPAILGILGGILALLILILLLLLFLRRRAVVKEPLLPPEDDTRDNVYYYDEEGGGEEDQDFDLSQLHRGLDARPEVTRNDVAPTLMSVPRYLPRPANPDEIGNFIDENLKAADTDPTAPPYDSLLVFDYEGSGSEAASLSSLNSSESDKDQDYDYLNEWGNRFKKLADMYGGGEDD
# Tests used:
# peripheral NK cells [1] = assay: in vitro differentiation of peripheral NK cells into ielLC1-like cells, co-culture with epithelial feeder cells; type: cell-based, human
# Protocol: (A) Protocol for in vitro differentiation of peripheral NK cells into ielLC1-like cells. In brief, PCI13 cells were seeded into a culture plate, then peripheral NK cells were sorted and added to the culture (ratio 10NK:1PCI13) in the presence or not of IL15 (10 ng/mL). After 4 days of co-culture, NK cells were harvested for phenotypic and functional analysis. (B, LEFT) Dot plots show the expression of CD49a and CD103 on gated Lin^−CD45^+CD56^+ NK cells, after culture of NK with PCI13 and IL15 (10 ng/mL) or control conditions. […] (C-D) Functional response of in vitro differentiated ielLC1-like cells. […] (D) After in vitro differentiation, CD49a^− and CD49a^+ cells were sorted and mixed with PCI13 (10^6 NK cells:5.10^6 PCI13) and injected subcutaneously in the flank of NSG mice. Then, tumor volume was measured over time. […] (E) Sorted CD49a^+ and CD49a^− NK cells were assessed for expression of NR4A1, NR4A2, and NR4A3 by qRT-PCR.
# In a summary of the protocol for in vitro differentiation of peripheral conventional NK cells into ielLC1-like cells: sorted, enriched, or expanded peripheral NK cells in the presence of IL15 are seeded into culture with cells such as HNSCC, which may be irradiated, or onto plate surfaces that mimic select attributes of these cells. After a suitable period of time for culture, e.g. about 4 days, the differentiated cells are harvested for analysis and effector functions.
# • HNSCC cells were harvested from their culture, washed with PBS and counted. • HNSCC cells were then resuspended in media for co-culture, and seeded into plates as follows:
# • NK were resuspended with media containing IL-15. • NK cells were added to the co-culture as follows:
# • On day 2, half of the supernatant was replaced with fresh media containing IL-15 (20 ng/mL). Harvesting and use of ielLC1-Like Cells. • On day 4, ILC1-like cells were harvested. • Note: The harvested cells were ielLC1-like cells. HNSCC cells were killed during the culture. • ILC1-like cells were washed with PBS and counted. • ILC1-like cells were then used for phenotypic analysis and functional assays.
# peripheral NK cells [2] = assay: in vivo differentiation of peripheral NK cells injected intra-tumor into PCI13 tumors; design: species or system NSG mice; settings: IL15 5 μg/mouse every 2 days, tumors harvested after 6 days
# Protocol: (A) Protocol used to evaluate the in vivo differentiation of peripheral NK cells into ILC1-like cells. In brief, 10^6 PCI13 were subcutaneously injected in the flank of NSG mice, after 10-15 days (when the tumor were palpable) peripheral NK cells were obtained from blood and were injected intra-tumor. Mice were treated or not with IL15 (5 μg/mouse) every 2 days. After 6 days, tumors were harvested and the phenotype and function of intra-tumoral NK cells were assessed. (B) According to the protocol described in (A), sorted Lin^−CD56^+ NK cells were intra-tumor injected. […] (C-D) According to the protocol described in (A), sorted Lin^−CD56^+CD94^+CD16^− Stage 4b NK cells were intra-tumor injected. (C, LEFT) Dot plots show the expression of CD49a and CD103 on NK cells obtained following intra-tumor injection of sorted stage 4b NK cells, in the presence or not of IL15 in vivo. […]
# 10^6 PCI13 tumor cells were subcutaneously injected in the flank of NSG mice, after 10-15 days (when the tumor were palpable) peripheral NK cells were obtained from blood and were injected intra-tumor. […] After 6 days, tumors were harvested and the phenotype and function of intra-tumoral NK cells were assessed.
# NK cells = assay: feeder cell-free culture of NK cells, differentiation into ielLC1-like cells; type: cell-based, human; settings: culture plates with or without E-Cadherin coating, NK cells with IL-15, no feeder cells
# Text: FIG. 7: Co-culture of peripheral NK cells with IL-15 and TGFbeta enhances differentiation into ielLC1-like cells. (A) Using a co-culture system similar to FIG. 5A, NK cells were co-cultured with MDCK (top) or PCI-13 (bottom) in the presence of IL-15 and either the TGFbeta receptor 2 inhibitor ITD1 or the ALK receptor inhibitor SB-431542 or TGFb.
# FIG. 11: Feeder cell-free culture of NK cells with extracellular matrix components can induce ielLC1-like cell differentiation. Culture plates with or without E-Cadherin coating was used to culture NK cells with IL-15.
# [3] = NK cells with IL-15 and PCI-13 carcinoma cells
# [4] = NK cells co-cultured with MDCK or PCI-13 in the presence of IL-15
molecule,measurement,setting,value
Cc1ccccc1N=Nc1ccc(NC(=O)c2ccnn2C)c(C)c1 [CH-223191],ielLC1-like cell differentiation,peripheral NK cells [1]; [3],profound reduction of ielLC1-like differentiation
O=Cc1c2[nH]c3ccccc3c2cc2[nH]c3ccccc3c12 [FICZ],ielLC1-like cell differentiation,peripheral NK cells [1]; [3],promoted the ielLC1-like differentiation
CCOC(=O)C1=C(C)NC2=C(C(=O)CC(C)(C)C2)C1c1ccc(-c2ccccc2)cc1 (centres unmarked) [ITD1],ielLC1-like cell differentiation,peripheral NK cells [1]; [4],significant inhibition of ielLC1-like cell differentiation
IL-15: 14-15 kDa glycoprotein cytokine (BioLegend; Cat #570306),differentiation of peripheral NK into ielLC1-like cells in vivo,peripheral NK cells [2],promotes differentiation of peripheral NK into ielLC1-like cells in vivo
same,"differentiation of peripheral NK into ielLC1-like cells (CD49a+, CD49a+CD103+)","peripheral NK cells [1]; NK with PCI13 (ratio 10NK:1PCI13), IL15 10 ng/mL, 4 days",promotes differentiation of peripheral NK into ielLC1-like cells
NC(=O)c1ccc(-c2nc(-c3ccc4c(c3)OCO4)c(-c3ccccn3)[nH]2)cc1 [SB-431542],ielLC1-like cell differentiation,peripheral NK cells [1]; [4],significant inhibition of ielLC1-like cell differentiation
TGFb,ielLC1-like cell differentiation,peripheral NK cells [1]; [4],stimulation of the ielLC1-like phenotype
B1,formation of ielLC1-like cells,NK cells,enhanced formation of the ielLC1-like cells
